According to patent US12649733B2, “3,6-diamino-pyridazin-3-yl derivatives, pharmaceutical compositions containing them and their uses as pro-apoptotic agents” (LES LABORATOIRES SERVIER, priority 2019, dated 2026):

Assays:
[1] = test system: T-ALL patient derived xenograft models; conditions: in vivo; cited from earlier work
[2] = test system: hematological malignancies and solid tumors; conditions: several hematological malignancies and solid tumors; cited from earlier work
lymphoid malignancies = conditions: cited from earlier work
lymphocyte proliferation = conditions: in vitro; cited from earlier work
[3] = test system: allogeneic T- and B-cell responses; conditions: after skin transplantation; cited from earlier work
[4] = mice, animal models of arthritis and lupus; cited from earlier work
allogeneic T-cell = conditions: in vitro; cited from earlier work
BCLXL [5] = target: T1, BCLXL (Homo sapiens, UniProt Q07817, V10N/V9A); experiment: AlphaLISA assay (BIM peptide displacement); format: binding; conditions: 20 pM protein, 1 nM peptide
T1 sequence (Q07817 with tags, fused parts or gaps V9A/V10N): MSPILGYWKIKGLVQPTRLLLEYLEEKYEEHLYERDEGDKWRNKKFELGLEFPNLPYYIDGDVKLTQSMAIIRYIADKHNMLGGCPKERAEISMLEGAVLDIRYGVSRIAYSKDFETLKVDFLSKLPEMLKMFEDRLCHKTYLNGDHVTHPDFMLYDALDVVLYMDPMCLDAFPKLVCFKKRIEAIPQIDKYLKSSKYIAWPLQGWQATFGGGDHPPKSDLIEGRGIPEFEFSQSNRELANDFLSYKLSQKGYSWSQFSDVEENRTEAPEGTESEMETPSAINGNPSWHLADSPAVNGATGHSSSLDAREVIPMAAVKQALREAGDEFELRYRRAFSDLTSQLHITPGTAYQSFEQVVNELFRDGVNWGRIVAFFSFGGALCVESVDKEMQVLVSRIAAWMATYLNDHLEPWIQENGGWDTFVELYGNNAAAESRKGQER
How it was run: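 Competitive displacement of fluorescein-labelled BIM peptide (1 nM) from biotinylated GST-BCL-XL(2-209) (20 pM) in 10 mM HEPES, 150 mM NaCl, 0.05% Tween 20, pH 7.4, 4% DMSO; 11-point dilutions. Overnight at 23° C with acceptor beads, then donor beads 2 h; Alpha signal at 615 nm.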

Bcl-xL protein = target: T2, Bcl-xL protein (Homo sapiens, UniProt Q07817, N197C); experiment: Fluorescence quenching assay (PUMA peptide displacement); format: binding; conditions: 1 nM protein, 400 nM peptide, 2 hours at 23° C.; KI determined from IC50
T2 construct: (2-197)[N197C]; His-His (two His8 stretches joined by a Gly/Ala/Ser/Thr linker)
T2 sequence (Q07817 2-197 N197C): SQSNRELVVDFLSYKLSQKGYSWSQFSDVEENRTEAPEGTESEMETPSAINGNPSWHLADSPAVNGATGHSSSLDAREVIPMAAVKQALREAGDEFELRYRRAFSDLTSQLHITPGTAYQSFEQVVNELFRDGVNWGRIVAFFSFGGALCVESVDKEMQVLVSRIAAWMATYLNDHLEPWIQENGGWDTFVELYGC
How it was run: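 Displacement of a TQ5WS-quencher-labelled PUMA peptide (400 nM) from Cy5-labelled His-tagged Bcl-xL 2-197 N197C (1 nM) raises fluorescence. An 11-point compound dilution was incubated 2 h at 23 °C in HEPES 10 mM, NaCl 150 mM, 0.05% Tween 20, pH 7.4, 5% DMSO. Fluorescence was read at Ex 620/Em 680 nm, and KI was derived from IC50.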

[6] = test system: MOLT-4 T-cell Acute Lymphoblastic Leukemia (T-ALL) model; experiment: MOLT-4 xenograft efficacy study (tumor growth inhibition); format: in vivo, female NOD SCID mice; conditions: for % TGI (day 17): 3.75 mg/kg, IV, Q3D6; for activity in vivo after intravenous administration: MOLT-4 xenograft
Method: The in vivo therapeutic and pharmacodynamic effects of Bcl-xL-targeting small molecules were determined in MOLT-4 T-cell Acute Lymphoblastic Leukemia (T-ALL) model upon intravenous (IV) administration. The tested compounds were formulated in Hydroxypropyl-β-Cyclodextrin 20%/Hydrogen Chloride 25 mM (HPBCD/HCl). MOLT-4 cells (ATCC No. CRL-1582) were cultured in RPMI supplemented with 10% FBS. Cells were re-suspended in 50% matrigel (BD Biosciences) and 0.1 mL containing 5×10^6 cells was subcutaneously inoculated into the right flank of female NOD SCID mice (Charles River). For efficacy studies, when tumors reached the appropriate volume, mice were randomized (8 animals per group) using Easy stat software. Control vehicle (HPBCD/HCl), Example 73 (3.75 or 7.5 mg/kg) or Example 100 (3.75 mg/kg) were injected IV ([…]-[…]). Mice body weight was monitored three times a week and tumor size was measured using electronic calipers. Tumor volume was estimated by measuring the minimum and maximum tumor diameters using the formula: (minimum diameter)^2 (maximum diameter)/2. At the end of the treatment cycle (day 17), tumor growth inhibition was calculated using the formula: [formula] Response was evaluated as follows: CR (Complete Response) if tumor size was ≤25 mm^3 for at least three consecutive measurements, PR (Partial Response) if tumor size was comprised between 25 mm^3 and half of the starting size for at least three consecutive measurements. Mice were sacrificed at the first measurement for which tumor volume exceeded 2000 mm^3 or at the first signs of animal health deterioration. Efficacy of Example 73 and Example 100 on MOLT-4 xenografts is illustrated in Table 5. Treatment was started 12 days post tumor cells inoculation (average size: 214 mm^3). Vehicle (HPBCD/HCl), Example 73 (3.75 and 7.5 mg/kg) or Example 100 (3.75 mg/kg) were dosed IV each 3 days for a total of 6 administrations.

BCLXL [7] = target: T1, BCLXL; experiment: Fluorescence polarisation assay (PUMA-based probe displacement); format: binding; note: 20 nM protein, 10 nM fluorescent probe
MOLT-4 cells = experiment: MOLT-4 cell viability, MTT assay; format: cell-based; conditions: Homo sapiens, MOLT-4, 48 h, 48 h exposure
How it was run: (§1)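 Cells grown in RPMI 1640 with 10% heat-inactivated FBS at 37° C, 5% CO2, exposed 48 h to nine 3.16-fold serial compound dilutions in triplicate. MTT added for 4 h, SDS/HCl solubilisation overnight, absorbance at 540 nm; IC50 by four-parameter fit.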

H146 cells = experiment: H146 cell viability, MTT assay; format: cell-based; conditions: Homo sapiens, NCI-H146, 48 h, 48 h exposure
How it was run: as §1

[8] = test system: T-ALL (T-cell Acute Lymphoblastic Leukemia) and different types of solid tumors; conditions: pre-clinical models of T-ALL and different types of solid tumors; cited from earlier work
MOLT-4 = conditions: mature T-ALL cell line xenograft model MOLT-4; cited from earlier work

IC50 (BCLXL [5]) [nM] | Ki (BCLXL [7]) [nM] | IC50 (MOLT-4 cells) [nM] | IC50 (H146 cells) [nM] | SMILES | activity in vivo after intravenous administration [6] | further results
 |  |  |  | CC1(C)CCC(c2ccc(Cl)cc2)=C(CN2CCN(c3ccc(C(=O)NS(=O)(=O)c4ccc(N[C@H](CCN5CCOCC5)CSc5ccccc5)c(S(=O)(=O)C(F)(F)F)c4)cc3)CC2)C1 [ABT-263] |  | activity in T-ALL patient derived xenograft models [1]: promising activity; activity in pre-clinical models [2]: has shown activity; antitumor activity in clinical studies (lymphoid malignancies): exhibited objective antitumor activity
 |  |  |  | CN(C)CC[C@H](CSc1ccccc1)Nc1ccc(S(=O)(=O)NC(=O)c2ccc(N3CCN(Cc4ccccc4-c4ccc(Cl)cc4)CC3)cc2)cc1[N+](=O)[O-] [ABT-737] |  | inhibition of lymphocyte proliferation (lymphocyte proliferation): potent inhibition of lymphocyte proliferation; allogeneic T- and B-cell responses [3]: inhibited allogeneic T- and B-cell responses; disease severity [4]: significant decrease in disease severity; activity in T-ALL patient derived xenograft models [1]: promising activity; allogeneic T-cell activation, proliferation, and cytotoxicity (allogeneic T-cell): prevented allogeneic T-cell activation, proliferation, and cytotoxicity
0.0077 | < 1 | 1.51 | 4.8 | CNCC#Cc1ccc(OCCCc2sc(N(C)c3cc(C)c(Nc4nc5ccccc5s4)nn3)nc2C(=O)O)c(F)c1 [Example 73, 2-({6-[(1,3-Benzothiazol-2-yl)amino]-5-methylpyridazin-3-yl}(methyl)amino)-5-(3-{2-fluoro-4-[3-(methylamino)prop-1-yn-1-yl]phenoxy]propyl)-1,3-thiazole-4-carboxylic acid] | active in vivo | Ki (Bcl-xL protein): 0.0028 nM; % TGI (day 17) [6]: 56.9%
0.074 | 1.1 | 6.72 | 6.78 | CNCCN(C)CC#Cc1ccc(OCCCc2sc(N(C)c3cc(C)c(Nc4nc5ccccc5s4)nn3)nc2C(=O)O)c(F)c1 [Example 74, 2-({6-[(1,3-Benzothiazol-2-yl)amino]-5-methylpyridazin-3-yl}(methyl)amino)-5-{3-[2-fluoro-4-(3-{methyl[2-(methylamino)ethyl]amino}prop-1-yn-1-yl)phenoxy]propyl}-1,3-thiazole-4-carboxylic acid] | active in vivo | Ki (Bcl-xL protein): 0.0061 nM
0.077 | < 1 | 2.37 | 11.3 | Cc1cc(N(C)c2nc(C(=O)O)c(CCCOc3ccc(C#CCN(C)CCO)cc3F)s2)nnc1Nc1nc2ccccc2s1 [Example 76, 2-({6-[(1,3-Benzothiazol-2-yl)amino]-5-methylpyridazin-3-yl}(methyl)amino)-5-[3-(2-fluoro-4-{3-[(2-hydroxyethyl)(methyl)amino]prop-1-yn-1-yl}phenoxy)propyl]-1,3-thiazole-4-carboxylic acid] | active in vivo | 
0.032 | 1.6 | 12.6 | 38.6 | Cc1cc(N(C)c2nc(C(=O)O)c(CCCOc3ccc(C#CCO)cc3F)s2)nnc1Nc1nc2ccccc2s1 [Example 100, 2-({6-[(1,3-Benzothiazol-2-yl)amino]-5-methylpyridazin-3-yl}(methyl)amino)-5-{3-[2-fluoro-4-(3-hydroxyprop-1-yn-1-yl)phenoxy]propyl}-1,3-thiazole-4-carboxylic acid] | active in vivo | % TGI (day 17) [6]: 64.6%
 |  |  |  | CN(C)CC#Cc1ccc(OCCCc2sc(N3CCc4cccc(C(=O)Nc5nc6ccccc6s5)c4C3)nc2C(=O)O)c(F)c1 [Example A-1155463] |  | in vivo activity [8]: exhibited in vivo activity
 |  |  |  | Cc1c(-c2ccc(N3CCc4cccc(C(=O)Nc5nc6ccccc6s5)c4C3)nc2C(=O)O)cnn1CC12CC3CC(CC(C3)C1)C2 [Example A-1331852] |  | in vitro and in vivo activity (MOLT-4): in vitro and in vivo activity; in vivo activity [8]: exhibited in vivo activity
